Data on nine compounds can be found in ChEMBL document CHEMBL1201862, “PubChem BioAssay data set” (2004).

The source made the active and inactive calls. A value given as a limit tells only on which side of the number the result lay.

Test [1] deals with Paired box protein Pax-8 (Homo sapiens, UniProt Q06710). Put plainly: inhibitors of PAX8-driven TPO luciferase reporter, dose response, RMG-I cells, cherry-pick (AID 687027).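 Also: luciferase reporter driven by Pax8 target thyroperoxidase promoter measured by SteadyGlo luminescence.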 The format is functional, cell-based.
Test [2] can be described thus: NIH:OVCAR-3 ovarian cancer cell cytotoxicity, dose response, PAX8 inhibitor project, plate reader, dry powder samples (AID 743044). The format is functional, cell-based.
Test [3] can be described thus: cytotoxicity in OVCAR8 ovarian cancer cells, dose response, PAX8 project, cell-based, plate reader, dry powder samples (AID 743197). The format is functional. The note with it: OVCAR-8.
Test [4] in a line: IGROV1 ovarian cancer cell cytotoxicity, dose response, PAX8 inhibitor project, plate reader, dry powder samples (AID 743043). In kind it is functional, cell-based. Particulars: IGROV-1.
A short description of test [5]: inhibitors of clade B AD8 Env fusion, dose response, cell-based, cherry-pick (AID 652062).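 Also: luciferase signal from cell-cell fusion driven by HIV-1 clade B AD8 Env; potency is for inhibitors of fusion seen as a drop in luminescence.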 In kind it is functional.
The nature of test [6]: YAP1 pathway inhibition via CTGF transcript levels, dose response, cell-based, DLD1 colon cancer, RT-qPCR, cherry-pick (AID 1053122). The format is functional. Particulars: Cancer cell lines.
Test [7] is described as follows: inhibitors of HIV Env-driven cell fusion, dose response, cherry-pick (AID 652057). In kind it is functional, cell-based.
Test [8] in a line: P. falciparum Dd2 growth inhibitors, dose response, SYBR Green, cherry-picked samples (AID 1159567). The format is functional, cell-based.
A short description of test [9]: HEK293T cell cytotoxicity, dose response, cytotoxicity control, luminescence plate reader, powder samples, set 4 (AID 651863). In kind it is functional, cell-based. Particulars: HEK293.
The target in test [10] is Metabotropic glutamate receptor 5 (Rattus norvegicus, UniProt P31424). Description: Identification of a glycine sulfonamide based non-MPEP site positive allosteric potentiator (PAM) of mGlu5 (calcium_assay). The format is functional.
Test [11] can be described thus: HeLa cell cytotoxicity, dose response, cytotoxicity control, 24 h, plate reader, dry powder (AID 686928). In kind it is functional, cell-based.
Test [12] in a line: MITF: Counter assay: A375 proliferation Measured in Cell-Based System Using Plate Reader - 2084-03_Inhibitor_Dose_DryPowder_Activity_Set8. The format is functional. The note with it: A-375.
Test [13] can be described thus: MITF Orthogonal Assay: SK-MEL-5 CTG Assay Measured in Cell-Based System Using Plate Reader - 2084-02_Inhibitor_Dose_DryPowder_Activity_Set7. In kind it is functional.
Test [14] in a line: TRPM1 promoter luciferase reporter signal decrease, dose response, MITF inhibitor project, cell-based, SK-MEL-5, dry powder, set 8 (AID 624430). The format is functional.
For test [15], the target named is Protein Wnt-3a (Mus musculus, UniProt P27467). Put plainly: SAR analysis of small molecule antagonists of Gli-SUFU in a Wnt3a luminescent reporter assay. In kind it is functional.
Test [16] can be described thus: A549 cell cytotoxicity, dose response, cytotoxicity control, plate reader, cherry-pick, antagonist series (AID 743412). In kind it is functional, cell-based.
A short description of test [17]: LGR2 antagonists, dose response, cell-based, HEK293, CRE-luciferase reporter, cherry pick (AID 743342). In kind it is functional.
The nature of test [18]: T. cruzi growth inhibition in host cells, dose response, cell-based, plate reader, dry powder, set 2 (AID 652275). In kind it is functional.

Chain of Protein Wnt-3a (P27467 whole entry): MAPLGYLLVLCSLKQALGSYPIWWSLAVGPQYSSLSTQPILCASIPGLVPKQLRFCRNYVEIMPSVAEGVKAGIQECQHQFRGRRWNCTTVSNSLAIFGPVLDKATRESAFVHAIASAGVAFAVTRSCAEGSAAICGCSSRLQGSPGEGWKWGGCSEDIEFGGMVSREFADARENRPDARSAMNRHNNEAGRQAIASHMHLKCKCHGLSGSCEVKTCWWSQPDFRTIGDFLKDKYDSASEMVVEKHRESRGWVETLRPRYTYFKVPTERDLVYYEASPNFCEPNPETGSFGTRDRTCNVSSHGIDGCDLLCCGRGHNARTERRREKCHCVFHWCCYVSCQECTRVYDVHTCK
Chain of Metabotropic glutamate receptor 5 (P31424 whole entry): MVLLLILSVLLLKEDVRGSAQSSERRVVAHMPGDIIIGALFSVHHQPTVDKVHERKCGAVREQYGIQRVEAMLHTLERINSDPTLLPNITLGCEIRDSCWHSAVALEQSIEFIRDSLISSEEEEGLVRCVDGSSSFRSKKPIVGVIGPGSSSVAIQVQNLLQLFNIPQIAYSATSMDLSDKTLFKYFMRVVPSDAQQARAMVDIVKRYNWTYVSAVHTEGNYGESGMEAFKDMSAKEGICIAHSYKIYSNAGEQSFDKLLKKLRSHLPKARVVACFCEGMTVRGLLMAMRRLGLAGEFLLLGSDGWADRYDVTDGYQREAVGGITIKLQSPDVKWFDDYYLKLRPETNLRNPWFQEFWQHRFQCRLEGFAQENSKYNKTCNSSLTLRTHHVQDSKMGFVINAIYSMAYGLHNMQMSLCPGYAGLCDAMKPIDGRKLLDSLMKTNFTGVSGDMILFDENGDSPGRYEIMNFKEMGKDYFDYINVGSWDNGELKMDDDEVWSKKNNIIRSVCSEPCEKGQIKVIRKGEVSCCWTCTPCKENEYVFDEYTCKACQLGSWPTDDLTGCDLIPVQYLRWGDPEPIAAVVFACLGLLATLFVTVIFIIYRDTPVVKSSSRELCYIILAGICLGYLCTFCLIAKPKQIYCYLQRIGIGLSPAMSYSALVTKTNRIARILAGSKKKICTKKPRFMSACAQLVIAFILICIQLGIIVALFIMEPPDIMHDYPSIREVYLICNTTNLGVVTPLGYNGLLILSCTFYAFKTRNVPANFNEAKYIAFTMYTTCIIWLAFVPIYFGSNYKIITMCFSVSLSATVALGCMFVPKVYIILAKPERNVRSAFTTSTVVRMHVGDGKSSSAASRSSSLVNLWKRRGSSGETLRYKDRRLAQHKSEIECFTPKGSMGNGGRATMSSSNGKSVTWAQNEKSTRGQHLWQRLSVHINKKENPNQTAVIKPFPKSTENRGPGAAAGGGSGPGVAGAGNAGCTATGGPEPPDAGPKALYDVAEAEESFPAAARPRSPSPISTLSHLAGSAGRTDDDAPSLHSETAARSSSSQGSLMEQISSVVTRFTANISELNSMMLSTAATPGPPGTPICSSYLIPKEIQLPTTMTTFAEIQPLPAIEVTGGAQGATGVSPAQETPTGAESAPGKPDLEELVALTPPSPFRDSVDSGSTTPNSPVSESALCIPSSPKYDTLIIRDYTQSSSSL
Chain of Paired box protein Pax-8 (Q06710 whole entry): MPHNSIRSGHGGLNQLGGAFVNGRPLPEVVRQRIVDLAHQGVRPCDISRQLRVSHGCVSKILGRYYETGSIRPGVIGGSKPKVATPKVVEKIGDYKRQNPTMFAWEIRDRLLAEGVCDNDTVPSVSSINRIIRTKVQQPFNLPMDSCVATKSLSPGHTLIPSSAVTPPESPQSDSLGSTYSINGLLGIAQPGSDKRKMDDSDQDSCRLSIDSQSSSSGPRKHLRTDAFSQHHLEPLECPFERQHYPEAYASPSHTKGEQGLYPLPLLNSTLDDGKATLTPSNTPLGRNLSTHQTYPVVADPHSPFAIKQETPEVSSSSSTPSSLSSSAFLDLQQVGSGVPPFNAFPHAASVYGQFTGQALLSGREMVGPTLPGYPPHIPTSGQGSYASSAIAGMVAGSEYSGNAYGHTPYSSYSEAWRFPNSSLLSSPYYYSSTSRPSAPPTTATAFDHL

For `C[C@@H]1CN([C@@H](C)CO)C(=O)Cc2cc(NS(=O)(=O)c3ccc(Cl)cc3)ccc2O[C@H]1CN(C)Cc1ccc(Oc2ccccc2)cc1`, the AC50 in test [1] was 6.27 µM (active); in [2], 22.5 µM (active); in test [3], 26.7 µM (active); in test [4], 25.9 µM (active).
In the case of `N#C[C@@H]1[C@H](c2ccc(-c3cccc(F)c3)cc2)[C@H](CO)N1C(=O)NC1CCCC1`, the AC50 in test [5] is 0.768 µM (active); in test [6], > 26 µM (inactive); in [7], 39.5 µM (active); in test [8] it was 2.84 µM (active).
In the case of `COC(=O)[C@@H]1CCCC[C@@H]1C(=O)N1CCc2ccccc2[C@H]1CN1C(=O)c2ccccc2C1=O`, in [9], the AC50 was > 52 µM (inactive).
`CS(=O)(=O)N(CC(=O)NCC(F)(F)F)c1ccccc1Cl`: the EC50 in [10] was 10 µM (inconclusive).
Regarding `CCCCCCCCCC(=O)[C@@H](O)CC.CCCCCCCCCC(=O)[C@H](O)CC`, in test [11], the AC50 was > 200 µM (inactive).
In the case of `CC(C)N1CCN(C2=C(Nc3cccc(Br)c3)C(=O)c3ccccc3C2=O)CC1`, the AC50 is 48.5 µM (active) in [12], 11.5 µM (active) in [13] and 2.52 µM (active) in [14].
`CCN(CC)c1cc(NC(=O)c2ccccc2F)ncn1`: the IC50 in test [15] is 0.172 µM (active).
Consider `C[C@H](CO)N1C[C@H](C)[C@H](CN(C)C(=O)Nc2ccccc2)OCCCC[C@H](C)Oc2ccc(NC(=O)C3CCCCC3)cc2C1=O`, for which the AC50 in test [16] is 39.5 µM (active); in [17], 3.87 µM (active).
Take `CN(C)CC#Cc1cccc(-c2nc(C(=O)NCc3ccc(Oc4ccccc4)cc3)cc3c2[C@H](CCO)N([S+]([O-])C(C)(C)C)C3)c1` (stereo partly drawn): the AC50 in test [18] is 0.746 µM (active).
